Tests used:
Type in all cases: in vivo
[1] = tested on: ragweed (common ragweed, Ambrosia elatior); experiment: Test A greenhouse herbicide test, pre- and postemergence
How it was run: (§1)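 Seeds sown in loam–sand blend got a preemergence directed soil spray of compound in non-phytotoxic solvent with surfactant. Postemergence treatment was given at 2–10 cm, one- to two-leaf stage. After ~10 d in greenhouse, injury was rated visually vs untreated controls, 0 (no effect) to 100 (complete control).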

[2] = tested on: pigweed (Amaranthus retroflexus); experiment: as above
How it was run: as §1

[3] = tested on: corn (Zea mays); experiment: as above; conditions: Postemergence
How it was run: as §1

[4] = tested on: foxtail, giant (giant foxtail, Setaria faberii); experiment: as above
How it was run: as §1

[5] = tested on: barnyardgrass (Echinochloa crus-galli); experiment: as above
How it was run: as §1

[6] = tested on: blackgrass (Alopecurus myosuroides); experiment: Test A greenhouse herbicide test, postemergence
How it was run: (§2)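 Greenhouse postemergence test: formulated chemicals sprayed on one- to two-leaf plants (2 to 10 cm), grown in loam soil blended with sand. Injury assessed visually about 10 d later against untreated controls, scored 0 (no effect) to 100 (complete control).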

[7] = tested on: galium (catchweed bedstraw, Galium aparine); experiment: Test A greenhouse herbicide test, postemergence
How it was run: as §2

[8] = tested on: wheat (winter wheat, Triticum aestivum); experiment: Test C greenhouse herbicide test, pre- and postemergence
How it was run: (§3)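 Preemergence: seeds sown in a loam soil–sand blend and sprayed with test chemicals in a non-phytotoxic solvent mixture containing surfactant. Postemergence: plants grown in peat-based medium and treated at 2 to 18 cm (1- to 4-leaf stage). After 13 to 15 d in a greenhouse, injury was visually rated 0–100 against controls.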

[9] = tested on: nutsedge, yellow (yellow nutsedge, Cyperus esculentus); experiment: as above
How it was run: as §3

[10] = tested on: galium (catchweed bedstraw, Galium aparine); experiment: as above
How it was run: as §3

[11] = tested on: barnyardgrass (Echinochloa crus-galli); experiment: as above
How it was run: as §3

[12] = Postemergence, 125 g ai/ha, 0 to 100 scale where 0 is no effect and 100 is complete control
[13] = Postemergence, 500 g ai/ha, visual rating after approx. 10 d, 0 to 100 scale (0 no effect, 100 complete control)
[14] = Preemergence, 500 g ai/ha, 0 to 100 scale where 0 is no effect and 100 is complete control
[15] = Preemergence, 125 g ai/ha, 0 to 100 scale where 0 is no effect and 100 is complete control
[16] = 125 g ai/ha, 0 to 100 scale where 0 is no effect and 100 is complete control
[17] = 500 g ai/ha, visual rating after approx. 10 d, 0 to 100 scale (0 no effect, 100 complete control)
[18] = Postemergence, 16 g ai/ha, scale 0 to 100 (0 no effect, 100 complete control)
[19] = Postemergence, 31 g ai/ha, scale 0 to 100 (0 no effect, 100 complete control)
[20] = Postemergence, 62 g ai/ha, 0 to 100 scale (0 no effect, 100 complete control)
[21] = postemergence, 125 g ai/ha, scale 0 to 100, 0 no effect, 100 complete control
[22] = Postemergence, 125 g ai/ha, scale 0 to 100, 0 is no effect, 100 is complete control
[23] = Postemergence, 125 g ai/ha, 0 to 100 scale, 0 no effect, 100 complete control
[24] = Preemergence, 125 g ai/ha, visual injury rating, 0 to 100 scale (0 no effect, 100 complete control), approx. 10 d
[25] = 125 g ai/ha, 0 to 100 scale, 0 no effect, 100 complete control
[26] = Postemergence, 250 g ai/ha, scale 0 to 100, 0 no effect, 100 complete control, 13 to 15 d
[27] = Preemergence, 31 g ai/ha, scale 0 to 100, 0 is no effect, 100 is complete control
[28] = Preemergence, 62 g ai/ha, scale 0 to 100, 0 is no effect, 100 is complete control
[29] = Preemergence, 125 g ai/ha, scale 0 to 100, 0 is no effect, 100 is complete control
[30] = Preemergence, 250 g ai/ha, scale 0 to 100 (0 no effect, 100 complete control)

Structure (SMILES): COC(=O)Oc1cnn(C)c(=O)c1-c1c(C)ccc2ccccc12 [Compound 143]
- Plant response rating, Ragweed [1, 12]: 70
- Plant response rating, Ragweed [1, 13]: 70
- Plant response rating, Ragweed [1, 14]: 90
- Plant response rating, Pigweed [2, 12]: 90
- Plant response rating, Pigweed [2, 13]: 90
- Pigweed plant response rating [2, 15]: 80
- Plant response rating, Pigweed [2, 14]: 100
- Plant response rating, Corn [3, 16]: 0
- Plant response rating, Corn [3, 17]: 20
- Plant response rating, Foxtail, Giant [4, 12]: 20
- Plant response rating, Foxtail, Giant [4, 13]: 60
- Foxtail, Giant plant response rating [4, 15]: 20
- Plant response rating, Foxtail, Giant [4, 14]: 70
- Plant response rating, Barnyardgrass [5, 12]: 20
- Plant response rating, Barnyardgrass [5, 13]: 60
- Barnyardgrass plant response rating [5, 15]: 20
- Plant response rating, Barnyardgrass [5, 14]: 80
- Plant response rating, Blackgrass [6, 16]: 40
- Plant response rating, Blackgrass [6, 17]: 60
- Plant response rating, Galium [7, 16]: 90
- Plant response rating, Galium [7, 17]: 100
- Plant response rating, Wheat [8, 18]: 0
- Plant response rating, Wheat [8, 19]: 5
- Wheat plant response rating [8, 20]: 35
- Wheat plant response rating [8, 21]: 15
- Plant response rating, Nutsedge, Yellow [9, 18]: 10
- Plant response rating, Nutsedge, Yellow [9, 19]: 10
- Nutsedge, Yellow plant response rating [9, 20]: 40
- Nutsedge, Yellow plant response rating [9, 21]: 35
- Plant response rating, Galium [10, 18]: 60
- Plant response rating, Galium [10, 19]: 65
- Galium plant response rating [10, 20]: 90
- Galium plant response rating [10, 21]: 90
- Plant response rating, Barnyardgrass [11, 18]: 15
- Plant response rating, Barnyardgrass [11, 19]: 20
- Barnyardgrass plant response rating [11, 20]: 25
- Plant response rating, Barnyardgrass [11, 22]: 30

Structure (SMILES): CC(=O)Oc1c(C)nn(C)c(=O)c1-c1c(C)cc(C)c2ccccc12 [Compound 153]
- Plant response rating, Ragweed [1, 23]: 80
- Plant response rating, Ragweed [1, 13]: 90
- Plant response rating, Ragweed [1, 24]: 80
- Plant response rating, Ragweed [1, 14]: 90
- Plant response rating, Pigweed [2, 23]: 80
- Plant response rating, Pigweed [2, 13]: 100
- Plant response rating, Pigweed [2, 24]: 100
- Plant response rating, Pigweed [2, 14]: 100
- Plant response rating, Corn [3, 25]: 0
- Plant response rating, Corn [3, 17]: 80
- Plant response rating, Foxtail, Giant [4, 23]: 90
- Plant response rating, Foxtail, Giant [4, 13]: 90
- Plant response rating, Foxtail, Giant [4, 24]: 100
- Plant response rating, Foxtail, Giant [4, 14]: 100
- Plant response rating, Barnyardgrass [5, 23]: 90
- Plant response rating, Barnyardgrass [5, 13]: 90
- Plant response rating, Barnyardgrass [5, 24]: 100
- Plant response rating, Barnyardgrass [5, 14]: 100
- Plant response rating, Blackgrass [6, 25]: 90
- Plant response rating, Blackgrass [6, 17]: 90
- Plant response rating, Galium [7, 25]: 100
- Plant response rating, Galium [7, 17]: 100
- Plant response rating, Wheat [8, 19]: 15
- Wheat plant response rating [8, 20]: 20
- Plant response rating, Wheat [8, 26]: 10
- Plant response rating, Wheat [8, 27]: 0
- Plant response rating, Wheat [8, 28]: 10
- Plant response rating, Wheat [8, 29]: 30
- Wheat plant response rating [8, 30]: 50
- Wheat plant response rating [8, 21]: 10
- Plant response rating, Nutsedge, Yellow [9, 19]: 85
- Nutsedge, Yellow plant response rating [9, 20]: 90
- Plant response rating, Nutsedge, Yellow [9, 26]: 90
- Plant response rating, Nutsedge, Yellow [9, 27]: 80
- Plant response rating, Nutsedge, Yellow [9, 28]: 85
- Plant response rating, Nutsedge, Yellow [9, 29]: 80
- Nutsedge, Yellow plant response rating [9, 30]: 95
- Nutsedge, Yellow plant response rating [9, 21]: 95
- Plant response rating, Galium [10, 19]: 95
- Galium plant response rating [10, 20]: 95
- Plant response rating, Galium [10, 26]: 98
- Plant response rating, Galium [10, 27]: 95
- Plant response rating, Galium [10, 28]: 98
- Plant response rating, Galium [10, 29]: 100
- Galium plant response rating [10, 30]: 100
- Galium plant response rating [10, 21]: 98
- Plant response rating, Barnyardgrass [11, 19]: 40
- Barnyardgrass plant response rating [11, 20]: 60
- Plant response rating, Barnyardgrass [11, 22]: 70
- Plant response rating, Barnyardgrass [11, 26]: 90
- Plant response rating, Barnyardgrass [11, 27]: 85
- Plant response rating, Barnyardgrass [11, 28]: 100
- Plant response rating, Barnyardgrass [11, 29]: 100
- Barnyardgrass plant response rating [11, 30]: 100

Structure (SMILES): Cc1cc(C)c2ccccc2c1-c1c(OS(C)(=O)=O)c(C)nn(C)c1=O [Compound 154]
- Plant response rating, Ragweed [1, 23]: 80
- Plant response rating, Ragweed [1, 13]: 80
- Plant response rating, Ragweed [1, 24]: 80
- Plant response rating, Ragweed [1, 14]: 90
- Plant response rating, Pigweed [2, 23]: 90
- Plant response rating, Pigweed [2, 13]: 90
- Plant response rating, Pigweed [2, 24]: 100
- Plant response rating, Pigweed [2, 14]: 100
- Plant response rating, Corn [3, 25]: 0
- Plant response rating, Corn [3, 17]: 40
- Plant response rating, Foxtail, Giant [4, 23]: 90
- Plant response rating, Foxtail, Giant [4, 13]: 90
- Plant response rating, Foxtail, Giant [4, 24]: 90
- Plant response rating, Foxtail, Giant [4, 14]: 100
- Plant response rating, Barnyardgrass [5, 23]: 90
- Plant response rating, Barnyardgrass [5, 13]: 90
- Plant response rating, Barnyardgrass [5, 24]: 70
- Plant response rating, Barnyardgrass [5, 14]: 100
- Plant response rating, Blackgrass [6, 25]: 70
- Plant response rating, Blackgrass [6, 17]: 90
- Plant response rating, Galium [7, 25]: 100
- Plant response rating, Galium [7, 17]: 100
- Plant response rating, Wheat [8, 19]: 0
- Wheat plant response rating [8, 20]: 5
- Plant response rating, Wheat [8, 26]: 5
- Plant response rating, Wheat [8, 27]: 0
- Plant response rating, Wheat [8, 28]: 0
- Plant response rating, Wheat [8, 29]: 0
- Wheat plant response rating [8, 30]: 30
- Wheat plant response rating [8, 21]: 10
- Plant response rating, Nutsedge, Yellow [9, 19]: 70
- Nutsedge, Yellow plant response rating [9, 20]: 60
- Plant response rating, Nutsedge, Yellow [9, 26]: 80
- Plant response rating, Nutsedge, Yellow [9, 27]: 0
- Plant response rating, Nutsedge, Yellow [9, 28]: 20
- Plant response rating, Nutsedge, Yellow [9, 29]: 70
- Nutsedge, Yellow plant response rating [9, 30]: 85
- Nutsedge, Yellow plant response rating [9, 21]: 85
- Plant response rating, Galium [10, 19]: 95
- Galium plant response rating [10, 20]: 95
- Plant response rating, Galium [10, 26]: 95
- Plant response rating, Galium [10, 27]: 98
- Plant response rating, Galium [10, 28]: 95
- Plant response rating, Galium [10, 29]: 98
- Galium plant response rating [10, 30]: 100
- Galium plant response rating [10, 21]: 95
- Plant response rating, Barnyardgrass [11, 19]: 70
- Barnyardgrass plant response rating [11, 20]: 85
- Plant response rating, Barnyardgrass [11, 22]: 90
- Plant response rating, Barnyardgrass [11, 26]: 95
- Plant response rating, Barnyardgrass [11, 27]: 65
- Plant response rating, Barnyardgrass [11, 28]: 80
- Plant response rating, Barnyardgrass [11, 29]: 90
- Barnyardgrass plant response rating [11, 30]: 95

Structure (SMILES): COC(=O)Oc1c(C)nn(C)c(=O)c1-c1c([N+](=O)[O-])ccc2ccccc12 [Compound 162]
- Plant response rating, Ragweed [1, 23]: 80
- Plant response rating, Ragweed [1, 13]: 100
- Plant response rating, Ragweed [1, 24]: 50
- Plant response rating, Ragweed [1, 14]: 90
- Plant response rating, Pigweed [2, 23]: 80
- Plant response rating, Pigweed [2, 13]: 90
- Plant response rating, Pigweed [2, 24]: 80
- Plant response rating, Pigweed [2, 14]: 90
- Plant response rating, Corn [3, 25]: 20
- Plant response rating, Corn [3, 17]: 30
- Plant response rating, Foxtail, Giant [4, 23]: 20
- Plant response rating, Foxtail, Giant [4, 13]: 40
- Plant response rating, Foxtail, Giant [4, 24]: 10
- Plant response rating, Foxtail, Giant [4, 14]: 40
- Plant response rating, Barnyardgrass [5, 23]: 20
- Plant response rating, Barnyardgrass [5, 13]: 50
- Plant response rating, Barnyardgrass [5, 24]: 10
- Plant response rating, Barnyardgrass [5, 14]: 20
- Plant response rating, Blackgrass [6, 25]: 20
- Plant response rating, Blackgrass [6, 17]: 40
- Plant response rating, Galium [7, 25]: 90
- Plant response rating, Galium [7, 17]: 100
- Plant response rating, Wheat [8, 19]: 0
- Wheat plant response rating [8, 20]: 10
- Plant response rating, Wheat [8, 26]: 10
- Wheat plant response rating [8, 21]: 5
- Plant response rating, Nutsedge, Yellow [9, 19]: 20
- Nutsedge, Yellow plant response rating [9, 20]: 25
- Plant response rating, Nutsedge, Yellow [9, 26]: 30
- Nutsedge, Yellow plant response rating [9, 21]: 30
- Plant response rating, Galium [10, 19]: 90
- Galium plant response rating [10, 20]: 90
- Plant response rating, Galium [10, 26]: 98
- Galium plant response rating [10, 21]: 95
- Plant response rating, Barnyardgrass [11, 19]: 10
- Barnyardgrass plant response rating [11, 20]: 20
- Plant response rating, Barnyardgrass [11, 26]: 25
- Barnyardgrass plant response rating [11, 21]: 25

From US10597388B2, “Pyridazinone herbicides” (FMC CORPORATION, priority 2014, dated 2020)
